Key:
[1] = test system: Pyricularia oryzae; assay type: cell-based; settings: 10 days after inoculation
[2] = test system: Phakopsora pachyrhizi; test: Curative control of soybean rust on soy beans caused by Phakopsora pachyrhizi (glasshouse); assay type: in vivo; settings: comparative trial (Use example 7), untreated 100
Procedure: The active compounds were formulated separately or together as a stock solution comprising 25 mg of active compound which was made up to 10 ml using a mixture of acetone and/or dimethyl sulfoxide (DMSO) and the emulsifier Wettol EM 31 (wetting agent having emulsifying and dispersing action based on ethoxylated alkylphenols) in a volume ratio of solvent/emulsifier of 99 to 1. This solution was then made up to 100 ml using water. This stock solution was diluted with the solvent/emulsifier/water mixture described to the active compound concentration given below.
Leaves of pot-grown soybean seedlings were inoculated with spores of Phakopsora pachyrhizi. To ensure the success of the artificial inoculation, the plants were transferred to a humid chamber with a relative humidity of about 95% and 23 to 27° C. for 24 h. The next day the plants were sprayed to run-off with an aqueous suspension, containing the concentration of active ingredient or their mixture as described below. The plants were allowed to air-dry. Then the trial plants were cultivated for 14 days in a greenhouse chamber at 23-27° C. and a relative humidity between 60 and 80%. The extent of fungal attack on the leaves was visually assessed as % diseased leaf area.
The spray solutions were prepared as described for “Examples of the action against harmful fungi” (II. B).
The trial was conducted as described for Use example 3.

SMILES | Growth (%) at 2 ppm [1] | Growth (%) at 31 ppm [1] | Disease level (%) at 250 ppm [2]
COc1cc(CNS(=O)(=O)c2ccc(-c3ccc(Cl)cc3Cl)cc2)sn1 [I-3] | 46% | – | –
Cn1nccc1CNS(=O)(=O)c1ccc(-c2ccc(Cl)cc2Cl)cc1 [I-46] | – | 16% | –
COc1cc(CNS(=O)(=O)c2ccc(-c3ccc(C(F)(F)F)cc3C(F)(F)F)cc2)sn1 [I-2] | – | – | 5%
COc1cc(CNS(=O)(=O)c2ccc(-c3ccc(C(F)(F)F)cc3C(F)(F)F)cc2)ccn1 | – | – | 100%
Cc1cnccc1CNS(=O)(=O)c1ccc(-c2ccc(Cl)cc2Cl)cc1 | – | 30% | –
COc1cc(CNS(=O)(=O)c2ccc(-c3ccc(Cl)cc3Cl)cc2)ccn1 [Table C) I-76 according to WO06/097489] | 68% | – | –

From patent US20110015065A1 (priority 2008, published 2011)
